Drawing on ChEMBL document CHEMBL3045414, “Synthesis and evaluation of 2,4,6-trisubstituted pyrimidine derivatives as novel antileishmanial agents” (2013), this text covers inhibition of growth for ten compounds.

The subject of this assay is Leishmania donovani. Description: Antileishmanial activity against promastigote stage of Leishmania donovani assessed as parasite growth inhibition at 10 ug/ml after 2 hr by MTT assay relative to control. Type of assay: functional. As to conditions: read-out: GI. (In general: Tetrazolium assays rely on reduction of a dye to a coloured formazan, in cell work by metabolically active cells.)
Turning to `Nc1nc(-c2ccccc2)cc(-c2ccc(-n3ccnc3)cc2)n1`, the inhibition of growth at 10 µg/mL came out at 32.8%.

In the case of `Nc1nc(-c2ccc(Cl)cc2)cc(-c2ccc(-n3ccnc3)cc2)n1`, the inhibition of growth at 10 µg/mL came out at 46.1%.

On to `Nc1nc(-c2ccc(Br)cc2)cc(-c2ccc(-n3ccnc3)cc2)n1`, for which the inhibition of growth at 10 µg/mL turned out to be 24.3%.

With `COc1ccc(-c2cc(-c3ccc(-n4ccnc4)cc3)nc(N)n2)cc1`, the inhibition of growth at 10 µg/mL amounted to 18.1%.

As to `Nc1nc(-c2ccccc2)cc(-c2ccc(-n3cnc4ccccc43)cc2)n1`, the inhibition of growth at 10 µg/mL was 41.9%.

On to `Nc1nc(-c2ccc(F)cc2)cc(-c2ccc(-n3cnc4ccccc43)cc2)n1`, for which the inhibition of growth at 10 µg/mL was found to be 29.6%.

Consider `Nc1nc(-c2ccc(Cl)cc2)cc(-c2ccc(-n3cnc4ccccc43)cc2)n1`, for which the inhibition of growth at 10 µg/mL was 32.7%.

In the case of `Nc1nc(-c2ccc(-n3cnc4ccccc43)cc2)cc(-c2ccc(Cl)cc2Cl)n1`, the inhibition of growth at 10 µg/mL stood at 56.4%.

For `Nc1nc(-c2ccc(Br)cc2)cc(-c2ccc(-n3cnc4ccccc43)cc2)n1`, the inhibition of growth at 10 µg/mL was determined as 32.5%.

On to `COc1ccc(-c2cc(-c3ccc(-n4cnc5ccccc54)cc3)nc(N)n2)cc1`, for which the inhibition of growth at 10 µg/mL was determined as 51.2%.
